One data set has as its system organic phosphorus agent- and carbamate agent-resistant Myzus persicasypii. In words: Test to organic phosphorus agent- and carbamate agent-resistant Myzus persicasypii (spray on eggplant). The data set is classed as in vivo. As to conditions: efficacious component concentration 500 ppm; sprayed on eggplant; 28° C.; after 7 days from spraying. How it is done:
(§1) • Sample Solution Preparation • Solvent: dimethylformamide 3 part by weight • Emulsifier: polyoxyethylene alkyl phenyl ether 1 part by weight
(§2) To prepare a proper active compound, the active compound 1 part by weight was mixed with the above-mentioned solvent containing the above-mentioned emulsifier and the mixture was diluted with water to a prescribed concentration.
30 grown organic phosphorus agent- and carbamate agent-resistant Myzus persicasypii were inoculated in each vinyl pot with 6 cm diameter in which eggplant seeding was done and after 1 day from the inoculation, the above produced active compound diluted with water to have a prescribed concentration was sufficiently sprayed by a spray gun. After the spraying, the vinyl pots were left in a greenhouse at 28° C. and the insect extermination ratio was calculated after 7 days from spraying. The test was repeated two times.
Take `CCc1cc(C(F)(C(F)(F)F)C(F)(F)F)cc(C)c1NC(=O)c1cccc(NC(=O)c2ccccc2Cl)c1` [Compound 57]: the “insecticidal ratio (insect extermination ratio)” value was determined as 100%. Same read-out and setting: to `Cc1cc(C(F)(C(F)(F)F)C(F)(F)F)cc(C)c1NC(=O)c1cccc(NC(=O)c2ccc(Cl)cc2)c1F` [Compound 139] belongs 100%; to `CCc1cc(C(F)(C(F)(F)F)C(F)(F)F)cc(C)c1NC(=O)c1cccc(NC(=O)c2cccc(Cl)c2)c1` [Compound 58], 100%; to `CCc1cc(C(F)(C(F)(F)F)C(F)(F)F)cc(C)c1NC(=O)c1cccc(NC(=O)c2ccc(F)cc2)c1` [Compound 61], 100%. The same measure, in the same setting: to `CCc1cc(C(F)(C(F)(F)F)C(F)(F)F)cc(C)c1NC(=O)c1cccc(NC(=O)c2cnccc2C(F)(F)F)c1` [Compound 1, 3-[4-(trifluoromethyl)nicotinyl]amino-N-(2-ethyl-6-methyl-4-heptafluoroisopropylphenyl)benzamide] belongs 100%. The same measure, in the same setting: in the case of `CCc1cc(C(F)(C(F)(F)F)C(F)(F)F)cc(C)c1NC(=O)c1cccc(NC(=O)c2ccccc2F)c1` [Compound 63] it was 100%.

System in another data set: not given
Assay: not given
Conditions: not given
For orientation: melting point means the temperature, or range, at which the solid turns liquid. `Cc1cc(C(F)(C(F)(F)F)C(F)(F)F)cc(C)c1NC(=O)c1cccc(NC(=O)c2ccccc2Cl)c1` [Compound 75, 3-(2-chlorobenzoyl)amino-N-(2,6-dimethyl-4-heptafluoroisopropylphenyl)benzamide] returned a melting point of 141 to 145 °C.

A further data set concerns third stage larvae of Spodoptera litura. Put plainly: Test to larvae of Spodoptera litura (leaf immersion). As to conditions: efficacious component concentration 20 ppm; batata leaves immersed; 25° C.; after 7 days; average of two dishes. In kind it is in vivo. How it is done:
as §1, §2
Leaves of batata were immersed in the sample solution diluted with water to a prescribed concentration and then the solution was dried out by air and the resulting leaves were put in a laboratory dish and 10 third stage larvae of Spodoptera litura were released and put in a greenhouse at a temperature 25° C. and the leaves of batata were added on second day and fourth day and the number of dead larvae was investigated after 7 days and the ratio of the dead larvae was calculated.
The results were the averages of two laboratory dishes for respective 1 group in this test.
In the case of `CCc1cc(C(F)(C(F)(F)F)C(F)(F)F)cc(C)c1NC(=O)c1cccc(NC(=O)c2snnc2C)c1` [Compound 35], the “insecticidal ratio (ratio of the dead larvae)” value stood at 100%. As for `CCc1cc(C(F)(C(F)(F)F)C(F)(F)F)cc(C)c1NC(=O)c1cccc(NC(=O)c2ccc(F)cc2F)c1` [Compound 56], the “insecticidal ratio (ratio of the dead larvae)” value turned out to be 100%.

Consider `CCc1cc(C(F)(C(F)(F)F)C(F)(F)F)cc(C)c1NC(=O)c1cccc(NC(=O)c2cccs2)c1` [Compound 30], for which the “insecticidal ratio (ratio of the dead larvae)” value was determined as 100%.

In the case of `CCc1cc(C(F)(C(F)(F)F)C(F)(F)F)cc(C)c1NC(=O)c1cccc(NC(=O)c2ncc(C(F)(F)F)cc2Cl)c1` [Compound 13], the “insecticidal ratio (ratio of the dead larvae)” value is recorded as 100%. Same read-out and setting: in the case of `CCc1cc(C(F)(C(F)(F)F)C(F)(F)F)cc(C)c1NC(=O)c1cccc(NC(=O)c2cccc(Cl)c2Cl)c1` [Compound 47] it was 100%; in that of `Cc1cc(C(F)(C(F)(F)F)C(F)(F)F)cc(C)c1NC(=O)c1cccc(NC(=O)c2c(F)cccc2F)c1` [Compound 72], 100%; in that of `CCc1cc(C(F)(C(F)(F)F)C(F)(F)F)cc(C)c1NC(=O)c1cccc(NC(=O)c2c(F)cc(F)cc2F)c1` [Compound 52], 100%. On the same count and under the same terms, to `Cc1cc(C(F)(C(F)(F)F)C(F)(F)F)cc(C)c1NC(=O)c1cccc(NC(=O)c2ccc(Cl)cc2)c1F` [Compound 139] belongs 100%. Still for that read-out and setting: to `CCc1cc(C(F)(C(F)(F)F)C(F)(F)F)cc(C)c1NC(=O)c1cccc(NC(=O)c2ccc(Cl)cc2Cl)c1` [Compound 44] belongs 100%; to `Cc1cc(C(F)(C(F)(F)F)C(F)(F)F)cc(I)c1NC(=O)c1cccc(NC(=O)c2ccccc2Cl)c1` [Compound 37], 100%. As to `CCc1cc(C(F)(C(F)(F)F)C(F)(F)F)cc(C)c1NC(=O)c1cccc(NC(=O)c2cc(Cl)sc2Cl)c1` [Compound 24], the “insecticidal ratio (ratio of the dead larvae)” value is given as 100%.

For the compound `Cc1cc(C(F)(C(F)(F)F)C(F)(F)F)cc(C)c1NC(=O)c1cccc(NC(=O)c2ccc(Cl)cc2)c1` [Compound 77], the “insecticidal ratio (ratio of the dead larvae)” value came to 100%. Same read-out and setting: to `CCc1cc(C(F)(C(F)(F)F)C(F)(F)F)cc(C)c1NC(=O)c1cccc(NC(=O)c2ccccc2C(F)(F)F)c1` [Compound 51] belongs 100%; to `CCc1cc(C(F)(C(F)(F)F)C(F)(F)F)cc(C)c1NC(=O)c1cccc(NC(=O)c2ccc(C(F)(F)F)cc2)c1` [Compound 49], 100%; to `CCc1cc(C(F)(C(F)(F)F)C(F)(F)F)cc(C)c1NC(=O)c1cccc(NC(=O)c2ccccc2Br)c1` [Compound 40], 100%.

On to `CCc1cc(C(F)(C(F)(F)F)C(F)(F)F)cc(C)c1NC(=O)c1cccc(NC(=O)c2ccco2)c1` [Compound 32], for which the “insecticidal ratio (ratio of the dead larvae)” value worked out at 100%. On the same count and under the same terms, to `CCc1cc(C(F)(C(F)(F)F)C(F)(F)F)cc(C)c1NC(=O)c1cccc(NC(=O)c2ccc(OC)cc2)c1` [Compound 60] belongs 100%; to `CCc1cc(C(F)(C(F)(F)F)C(F)(F)F)cc(C)c1NC(=O)c1cccc(NC(=O)c2ccccc2I)c1` [Compound 36], 100%; to `CCc1cc(C(F)(C(F)(F)F)C(F)(F)F)cc(C)c1NC(=O)c1cccc(NC(=O)c2ccc(Cl)cc2)c1` [Compound 59], 100%. On the same count and under the same terms, to `CCc1cc(C(F)(C(F)(F)F)C(F)(F)F)cc(C)c1NC(=O)c1cccc(NC(=O)c2cccc(F)c2)c1` [Compound 62] belongs 100%; to `CCc1cc(C(F)(C(F)(F)F)C(F)(F)F)cc(C)c1NC(=O)c1cccc(NC(=O)c2ccccc2[N+](=O)[O-])c1` [Compound 53], 100%. On the same count and under the same terms, to `CCc1cc(C(F)(C(F)(F)F)C(F)(F)F)cc(C)c1NC(=O)c1cccc(NC(=O)c2c(Cl)cccc2Cl)c1` [Compound 46] belongs 100%; to `CCc1cc(C(F)(C(F)(F)F)C(F)(F)F)cc(C)c1NC(=O)c1cccc(NC(=O)c2cccc(Cl)c2)c1` [Compound 58], 100%; to `CCc1cc(C(F)(C(F)(F)F)C(F)(F)F)cc(C)c1NC(=O)c1cccc(NC(=O)c2ccc(F)cc2)c1` [Compound 61], 100%. Consider `CCc1cc(C(F)(C(F)(F)F)C(F)(F)F)cc(C)c1NC(=O)c1cccc(NC(=O)c2ccccc2C)c1` [Compound 66], for which the “insecticidal ratio (ratio of the dead larvae)” value was found to be 100%. Same read-out and setting: to `CCc1cc(C(F)(C(F)(F)F)C(F)(F)F)cc(C)c1NC(=O)c1cccc(NC(=O)c2cnccc2C(F)(F)F)c1` [Compound 1, 3-[4-(trifluoromethyl)nicotinyl]amino-N-(2-ethyl-6-methyl-4-heptafluoroisopropylphenyl)benzamide] belongs 100%; to `CCc1cc(C(F)(C(F)(F)F)C(F)(F)F)cc(C)c1NC(=O)c1cccc(NC(=O)c2cc(Cl)cc(Cl)c2)c1` [Compound 45], 100%. Still for that read-out and setting: in the case of `CCc1cc(C(F)(C(F)(F)F)C(F)(F)F)cc(C)c1NC(=O)c1cccc(NC(=O)c2ccc(OC(F)(F)F)cc2)c1` [Compound 39] it was 100%. The same measure, in the same setting: to `CCc1cc(C(F)(C(F)(F)F)C(F)(F)F)cc(C)c1NC(=O)c1cccc(NC(=O)c2cccc(Br)c2)c1` [Compound 41] belongs 100%; to `Cc1cc(C(F)(C(F)(F)F)C(F)(F)F)cc(C)c1NC(=O)c1cccc(NC(=O)c2ccccc2)c1` [Compound 88], 100%; to `CCc1cc(C(F)(C(F)(F)F)C(F)(F)F)cc(C)c1NC(=O)c1cccc(NC(=O)c2ccc(Br)cc2)c1` [Compound 42], 100%. In the case of `CCc1cc(C(F)(C(F)(F)F)C(F)(F)F)cc(C)c1NC(=O)c1cccc(NC(=O)c2c(F)cccc2F)c1` [Compound 54], the “insecticidal ratio (ratio of the dead larvae)” value worked out at 100%. With `CCc1cc(C(F)(C(F)(F)F)C(F)(F)F)cc(C)c1NC(=O)c1cccc(NC(=O)c2ccc(Cl)nc2)c1` [Compound 3], the “insecticidal ratio (ratio of the dead larvae)” value was 100%.

As for `Cc1cc(C(F)(C(F)(F)F)C(F)(F)F)cc(C)c1NC(=O)c1cccc(NC(=O)c2ccccc2Cl)c1F` [Compound 134], the “insecticidal ratio (ratio of the dead larvae)” value is listed as 100%. Same read-out and setting: in the case of `CCc1cc(C(F)(C(F)(F)F)C(F)(F)F)cc(C)c1NC(=O)c1cccc(NC(=O)c2ccc(C)cc2)c1` [Compound 64] it was 100%; in that of `CCc1cc(C(F)(C(F)(F)F)C(F)(F)F)cc(C)c1NC(=O)c1cccc(NC(=O)c2ccccc2F)c1` [Compound 63], 100%; in that of `CCc1cc(C(F)(C(F)(F)F)C(F)(F)F)cc(C)c1NC(=O)c1cccc(NC(=O)c2cccc(F)c2F)c1` [Compound 55], 100%. Still for that read-out and setting: to `CCc1cc(C(F)(C(F)(F)F)C(F)(F)F)cc(C)c1NC(=O)c1cccc(NC(=O)c2ccccc2Cl)c1` [Compound 38] belongs 100%; to `CCc1cc(C(F)(C(F)(F)F)C(F)(F)F)cc(C)c1NC(=O)c1cccc(NC(=O)c2ccc(Cl)c(Cl)c2)c1` [Compound 43], 100%. Same read-out and setting: in the case of `CCc1cc(C(F)(C(F)(F)F)C(F)(F)F)cc(C)c1NC(=O)c1cccc(NC(=O)c2cc(Cl)ccc2Cl)c1` [Compound 48] it was 100%.
